Test: A549 cytotoxicity assay
Assay type: cell-based
Conditions: human, A549 cells (human lung carcinoma)

SMILES | IC50 at 72 h
C=C(C)[C@@H]1/C=C/[C@]23O[C@H]2[C@H](C[C@@]2(C)O[C@@H]2C2=CC(C=O)=C(C1)O2)OC3=O [keikipukalide A (1), keikipukalide A] | > 50 µg/mL
C=C(C)[C@@H]1CC(=O)[C@H]2[C@H](C1)[C@@H]1C(=O)O[C@@H]3C[C@]4(C)O[C@H]2C(=O)[C@@H]4[C@H]13 [ineleganolide (7), ineleganolide] | > 50 µg/mL
C=C(C)[C@H]1CC2=C(C=O)C=C(O2)[C@H]2O[C@]2(C)C[C@H]2C=C(C(=O)O2)[C@@H](OC(C)=O)C1 [keikipukalide E (5), keikipukalide E] | > 50 µg/mL
C=C(C)[C@@H]1CCC2=C[C@H](C[C@@]3(C)O[C@@H]3C3=CC(C=O)=C(C1)O3)OC2=O [pukalide aldehyde (6), pukalide aldehyde] | > 50 µg/mL
C=C(C)[C@@H]1C/C=C2\C(=O)O[C@@H](C[C@@]3(C)O[C@@H]3C3=CC(C=O)=C(C1)O3)[C@@H]2OC(C)=O [keikipukalide C (3), keikipukalide C] | > 50 µg/mL
C=C(C)[C@@H]1/C=C/[C@]23O[C@H]2[C@H](C[C@](C)(O)[C@@H](OC(C)=O)C2=CC(C=O)=C(C1)O2)OC3=O [keikipukalide D (4), keikipukalide D] | > 50 µg/mL
C=C(C)[C@H]1CC2=C(C=O)C=C(O2)[C@H]2O[C@]2(C)C[C@@H]2OC(=O)/C(=C\[C@H]1OC(C)=O)[C@H]2OC(C)=O [keikipukalide B (2), keikipukalide B] | > 50 µg/mL

From article PMC5791048 (Journal of Natural Products, 2017)
